# Test results reported in patent US9073945B2, “Alpha-IIb-beta-3 inhibitors and uses thereof” (THE ROCKEFELLER UNIVERSITY, priority 2006, dated 2015).
# Positions of bridges follow the written chain, without caps; N, C: chain ends. Non-standard residues stand in square brackets, D forms with d. Residues, ends and D or L forms follow the SMILES beside them. hArg = N=C(N)NCCCC[C@H](N)C(=O)O; Mpa = O=C(O)CCS
# Columns and labels:
# platelets [1] = assay: Platelet aggregation in aggregometer; format: cell-based, human; conditions: for IC50: Homo sapiens, Platelet
# Experimental: (§1) Platelet Preparation from Peripheral Blood. After informed consent is obtained from healthy human donors who have not taken any medication known to inhibit platelet function for at least 7 days, peripheral venous blood is collected via a 19-gauge butterfly needle into tubes containing either a 10% volume of sodium citrate (3.8%), or a 15% volume of Acid-Citrate-Dextrose (ACD-A, 74.8 mM sodium citrate, 38 mM citric acid, 124 mM dextrose). Platelet-rich plasma (PRP) is prepared by centrifugation at 650 g for 4 minutes at 22° C. and is gently removed with a plastic pipette. Platelet-poor plasma (PPP) is prepared by further centrifugation of the remaining blood at 3000 g for 10 minutes at 22° C. Washed platelets (WP) are prepared by treating ACD-anticoagulated PRP with 1 μM PGE1, adding 0.10 vol ACD, and centrifuge at 1200 g for 8 min at 22° C. The platelet pellet is resuspended in HBMT. Platelet counts are determined with the automated particle counter (ADVIA 120 hematological analyzer Bayer).
# Platelet Aggregation in Aggregometer. Citrated PRP is incubated with compounds or controls for 15 min 37° C. in 300-500 μl vols in glass aggregometer tubes. Agonists are added after 30 s equilibration in the aggregometer (Kowa) and light transmittance is measured for 8 min. Agonists include ADP, collagen (native type 1 collagen fibrils), restocetin, arachidonic acid, and thrombin receptor activating peptide [TRAP (SFLLRN)].
# [2] = biological target: T1, HEK293 cells expressing αIIbβ3 (Homo sapiens, UniProt P05106+P08514); assay: HEK293 cell adhesion to fibrinogen; format: cell-based; conditions: compound 100 μM, fibrinogen 50 μg/ml, 2 mM Ca2+/1 mM Mg2+, read-out: inhibition of HEK293 cell adhesion to immobilized fibrinogen
# T1 construct: expressed in transfected cells; host or cells: HEK293
# Experimental: (§2) Platelet and Cell Adhesion. Platelets are prepared from ACD-anticoagulated blood as previously described. Cells, either CS1 (αVβ3-expressing) or HEK293 (αIIbβ3-expressing) are separated from culture media by centrifugation at 200 g, 4 min. Cells are resuspended in HBMT containing 1 mM MgCl2 (CS1 cells) and/or 2 mM CaCl2 (HEK293 cells). Polystyrene 96-well microtiter plates (Nunc) are coated with either fibrinogen (50 μg/ml), vitronectin (5 μg/ml), or collagen (33 μg/ml, rat tail type 1, Becton Dickson) for 1 h, and blocked with HBMT for at least 1 h. Platelets and cells are treated with compounds or control solutions for 15 min at 37° C. before they are added to the microtiter wells. After adhering for 1 h at either 22° C. (platelets) or 37° C. (cells), non-adherent platelets or cells are removed by washing 3 times with HBMT containing the same ion composition as the buffer used for adhesion. Adherent platelets or cells are quantified by their endogenous acid phosphatase activity on p-nitrophenyl phosphate (pNPP) (1 mg/ml in 0.1 M sodium citrate, 0.1% Triton X-100, pH 5.4). In other experiments, 8-chambered glass coverslips (Nunc) are coated with collagen (33 μg/ml) for 1 h at 22° C. Washed platelets are allowed to adhere for 1 h at 22° C. and the coverslips are stained with the Alexa-488-conjugated β3-specific mAb 7H2. […]
# αIIbβ3 = biological target: T2, αIIbβ3 (Homo sapiens, UniProt P05106+P08514); assay: LIBS-specific mAb binding to resting platelets (flow cytometry); format: cell-based; conditions: compound 100 μM
# T2 construct: endogenous in cells; host or cells: washed resting platelets from platelet-rich plasma
# Experimental: mAb Binding. PRP anticoagulated with ACD is centrifuged at 1200 g for 8 min and is resuspended in HBMT containing 2 mM Ca^2+, 1 mmMg^2+. Platelet count is adjusted to 250,000/μl. Platelets are incubated with the Compounds (100 μM), tirofiban (100 μM), EDTA (10 mM), or 10E5 (10 μg/ml) for 15 min, at 37° C. Samples are incubated with Fluorescently-labeled monoclonal antibodies (PMI-1, LIBS-1, AP5, 7H2, 7E3, or 10E5; Alexa-488-conjugated, Invitrogen) at 20 μl, 5 μg/ml final concentration for 30 min at room temperature in the dark before diluting 1:10 for analysis on a FACSCalibur flow cytometer (Becton Dickson). Antibody binding is reported as the geometric mean fluorescence intensity; nonspecific binding is determined by adding a 50-fold excess of unlabeled antibody before adding labeled antibody.
# platelets [3] = assay: Fluorescent fibrinogen binding to platelets; format: cell-based; conditions: Homo sapiens, Platelet; AP5 60 μg/ml; read-out: IC50, fibrinogen binding to platelets induced by activating LIBS mAb AP5
# Experimental: (§3) Fluorescent Fibrinogen Binding. Washed platelets at 250,000/μl or αIIbβ3-expressing HEK293 cells at 10×10^6/ml in HBMT with 2 mM Ca^2+/1 mM Mg^2+ are incubated with compounds or controls and 200 μg/ml fluorescent fibrinogen (Invitrogen) with or without 60 μg/ml of the activating mAb AP5 for 30 min at 22° C. in the dark. Unbound fibrinogen is removed by centrifugation at 1800 rpm for 3 min and the platelets are resuspended in HBMT before FACS analysis.
# [4] = biological target: T3, αIIbβ3-expressing HEK293 cells (Homo sapiens, UniProt P05106+P08514); assay: Fluorescent fibrinogen binding to HEK293 cells; format: cell-based; conditions: AP5 60 μg/ml; n=3; read-out: IC50, AP5-induced fibrinogen binding to HEK293 cells
# T3 construct: expressed in transfected cells; host or cells: HEK293
# Experimental: as §3
# purified αIIbβ3 [5] = biological target: T4, purified αIIbβ3 (Homo sapiens, UniProt P05106+P08514); assay: Priming of fibrinogen binding to purified αIIbβ3; conditions: eptifibatide 10 μM, RGDS 10 μM, Compounds 100 μM
# T4 construct: purchased Enzyme Research Laboratories, South Bend, Ind
# Experimental: (§4) Fibrinogen Binding to Purified αIIbβ3. The anti-β3 mAb 7H2 (10 μg/ml) is adsorbed to polystyrene microtiter plate wells overnight at 4° C., and wells are then blocked with 3.5% BSA for 1 h at 22° C. Purified αIIbβ3 (Enzyme Research Laboratories, South Bend, Ind.) is diluted in buffer A (50 mM Tris/HCl, 100 mM NaCl, 1 mM CaCl2, 1 mM MgCl2, 1% BSA, 0.0035% Triton X-100) to 10 μg/ml, and is allowed to adhere to wells coated with mAb 7H2 for 2 h at 37° C. Wells are then washed 3 times with buffer A. Fibrinogen, prepared in buffer A (20 μg/ml) in the presence or absence of mAb AP5 (60 μg/ml), is incubated in plate wells for 2 h at 37° C. with or without the Compounds or control solutions. Wells are washed 3 times with buffer A and then incubated with a horseradish peroxidase-conjugated polyclonal anti-fibrinogen antibody (1:1,000 in buffer A; DAKO, Glostrup, Denmark) for 1 h at 22° C. Wells are washed 3 times, 200 μl of a peroxidase substrate [3,3′,5,5′-tetramethylbenzidine (TMB), Sigma-Aldrich] is added, the reaction is terminated after 30 min by acidification with 50 μl 0.5 M H2SO4, and absorbance is determined at 450 nm. For priming experiments the procedure is the same except: 1) αIIbβ3 is allowed to adhere in the presence of either eptifibatide (10 μM), RGDS (10 μM; Rockefeller University Proteomics Resource Center), the Compounds (100 μM), or DMSO (1%); 2) wells are washed 10 times after αIIbβ3 adhesion; and 3) absorbance is determined at 655 nm after 10 min.
# [6] = tested on: platelets in citrated whole blood; assay: Platelet adhesion under shear stress (cone and plate); format: cell-based, human; conditions: preferred Compound 50 μM, tirofiban 10 μM; 1800 s^−1; n=3
# Experimental: Platelet Adhesion Under Shear Stress. A cone and plate system (Diamed, Cressier, Switzerland) is used to assess the effect of the Compounds on platelet deposition under shear stress. 0.25 ml of citrated whole blood is incubated with nothing, DMSO (0.5%), the Compounds (50 μM), or tirofiban (10 μM) for 15 min at 22° C. and placed in polystyrene wells (16 mm diameter, Nunc). A constant uniform shear force of 1800 s^−1 was applied across the well using a teflon cone for 2 min at 22° C. Wells are washed with buffer, fixed with 1% paraformaldehyde, stained with Wright's Stain (Sigma-Aldrich), and analyzed for platelet adhesion using a 20× objective in an inverted microscope (IX51, Olympus, Center Valley, Pa.). Platelet adhesion is assessed by measuring the area occupied by platelets in each of four uniformly selected viewing areas in duplicate wells using image analysis software (SlideBook, Intelligent Imaging Innovations, Denver, Colo.).
# purified αIIbβ3 [7] = biological target: T4, purified αIIbβ3; assay: Fibrinogen binding to purified αIIbβ3; conditions: for effect of activating mAb AP5 on fibrinogen binding to purified αIIbβ3 in the presence of the substance: AP5 60 μg/ml
# Experimental: as §4
# [8] = tested on: αVβ3-expressing CS1 cells; assay: CS1 cell adhesion to vitronectin; format: cell-based; conditions: mAbs 20 μg/ml, compound 100 μM; Mg2+
# Experimental: as §2
# [9] = tested on: platelets in citrated PRP; assay: Platelet aggregation in 96-well plates (secondary screen); format: cell-based, human; conditions: induced by 5 μM ADP; 16.6 μM compound
# Experimental: as §1, with “The platelet pellet is resuspended in HBMT.” left out
# Platelet Aggregation in 96-well Plates. […] A 66.6 μl sample of citrated PRP from volunteer blood donors is added to compound-containing wells, and plates are allowed to equilibrate to 37° C. in the plate reader (SpectraMax) for 10 minutes. […] Absorbance is measured at 563 nm every 10 seconds with shaking for 3 s between reads for 8 minutes. Percent aggregation is calculated as (AbsPRP−Abssample)/(AbsPRP−AbsPPP).
# T2 sequence (P08514 32-887 limits assumed): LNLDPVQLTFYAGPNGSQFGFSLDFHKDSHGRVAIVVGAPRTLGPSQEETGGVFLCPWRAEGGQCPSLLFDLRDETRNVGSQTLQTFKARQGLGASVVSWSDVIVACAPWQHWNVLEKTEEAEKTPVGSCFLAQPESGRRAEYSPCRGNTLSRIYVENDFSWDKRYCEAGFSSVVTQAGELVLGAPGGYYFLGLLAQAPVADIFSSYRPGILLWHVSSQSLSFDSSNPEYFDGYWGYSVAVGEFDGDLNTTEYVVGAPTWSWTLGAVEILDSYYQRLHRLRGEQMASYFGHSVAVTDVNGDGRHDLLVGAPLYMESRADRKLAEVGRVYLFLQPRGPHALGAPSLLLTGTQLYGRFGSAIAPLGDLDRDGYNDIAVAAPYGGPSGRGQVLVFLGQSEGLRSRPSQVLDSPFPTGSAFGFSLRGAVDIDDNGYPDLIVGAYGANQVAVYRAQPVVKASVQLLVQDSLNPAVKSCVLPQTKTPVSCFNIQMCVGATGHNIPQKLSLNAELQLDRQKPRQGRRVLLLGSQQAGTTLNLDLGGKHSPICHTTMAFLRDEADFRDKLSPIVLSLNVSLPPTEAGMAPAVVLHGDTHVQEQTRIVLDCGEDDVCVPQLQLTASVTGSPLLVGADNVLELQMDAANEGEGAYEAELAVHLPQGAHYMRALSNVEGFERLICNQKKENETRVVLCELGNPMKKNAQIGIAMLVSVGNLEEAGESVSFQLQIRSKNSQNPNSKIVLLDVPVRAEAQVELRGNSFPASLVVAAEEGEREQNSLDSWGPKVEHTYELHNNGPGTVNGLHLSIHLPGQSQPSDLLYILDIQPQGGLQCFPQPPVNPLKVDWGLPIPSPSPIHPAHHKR
# T2 sequence (P08514 891-1039 partner limits assumed): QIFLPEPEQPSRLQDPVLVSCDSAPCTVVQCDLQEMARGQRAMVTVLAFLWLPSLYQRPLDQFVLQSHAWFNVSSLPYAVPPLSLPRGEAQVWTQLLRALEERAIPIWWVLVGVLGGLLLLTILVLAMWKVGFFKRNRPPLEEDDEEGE
# T2 sequence (P05106 27-788): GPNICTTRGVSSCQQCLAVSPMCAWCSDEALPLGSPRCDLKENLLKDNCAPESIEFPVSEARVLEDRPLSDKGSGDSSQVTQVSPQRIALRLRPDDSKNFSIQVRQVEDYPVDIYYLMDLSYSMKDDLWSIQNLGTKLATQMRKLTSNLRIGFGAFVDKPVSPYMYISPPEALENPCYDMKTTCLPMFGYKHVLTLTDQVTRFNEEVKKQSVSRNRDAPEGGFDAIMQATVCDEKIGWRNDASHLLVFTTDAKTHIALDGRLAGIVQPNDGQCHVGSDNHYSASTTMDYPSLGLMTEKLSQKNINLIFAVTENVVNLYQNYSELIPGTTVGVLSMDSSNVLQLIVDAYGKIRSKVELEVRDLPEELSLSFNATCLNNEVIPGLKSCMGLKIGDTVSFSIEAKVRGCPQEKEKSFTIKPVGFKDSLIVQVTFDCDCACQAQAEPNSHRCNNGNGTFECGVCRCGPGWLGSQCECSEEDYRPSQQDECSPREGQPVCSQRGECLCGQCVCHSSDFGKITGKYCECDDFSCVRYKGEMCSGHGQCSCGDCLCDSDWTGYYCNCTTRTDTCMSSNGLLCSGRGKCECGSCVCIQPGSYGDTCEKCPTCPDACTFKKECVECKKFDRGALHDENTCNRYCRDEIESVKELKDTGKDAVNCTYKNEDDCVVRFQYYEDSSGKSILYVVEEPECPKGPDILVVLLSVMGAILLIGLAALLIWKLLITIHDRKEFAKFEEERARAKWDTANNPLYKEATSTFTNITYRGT
# T4 sequence (P08514 32-887 limits assumed): as the sequence (P08514 32-887 limits assumed) above
# T4 sequence (P08514 891-1039 partner limits assumed): as the sequence (P08514 891-1039 partner limits assumed) above
# T4 sequence (P05106 27-788): as the sequence (P05106 27-788) above
# T3 sequence (P08514 32-887 limits assumed): as the sequence (P08514 32-887 limits assumed) above
# T3 sequence (P08514 891-1039 partner limits assumed): as the sequence (P08514 891-1039 partner limits assumed) above
# T3 sequence (P05106 27-788): as the sequence (P05106 27-788) above
# T1 sequence (P08514 32-887 limits assumed): as the sequence (P08514 32-887 limits assumed) above
# T1 sequence (P08514 891-1039 partner limits assumed): as the sequence (P08514 891-1039 partner limits assumed) above
# T1 sequence (P05106 27-788): as the sequence (P05106 27-788) above
compound,measurement,setting,value
"CCc1nn2c(=O)cc(N3CCNCC3)nc2s1 [Preferred Compound, 2-ethyl-7-(piperazin-1-yl)-5H-[1,3,4]thiadiazolo-[3,2-a]pyrimidin-5-one]",IC50,"platelets [1]; induced by 5 μM ADP, read-out: IC50, aggregation of platelets in citrated PRP",13 ± 5 µM
same,IC50,"platelets [1]; induced by 5 μM TRAP, n=3, read-out: IC50, aggregation of washed platelets",3.4 ± 0.4 µM
same,IC50,"platelets [1]; induced by 5 μM TRAP, read-out: IC50, aggregation of platelets in citrated PRP",29 ± 6 µM
same,IC50,"platelets [1]; induced by 1 mM arachidonic acid, read-out: IC50, aggregation of platelets in citrated PRP",8.5 ± 5.7 µM
same,platelet aggregation in PRP induced by collagen,"platelets [1]; compound 100 μM, collagen 2 μg/ml",completely inhibits
same,later phase of ristocetin-induced aggregation of PRP,"platelets [1]; ristocetin 1.8 mg/ml, data not shown",does inhibit
same,initial slope (initial wave) of ristocetin-induced agglutination/aggregation of PRP,"platelets [1]; ristocetin 1.8 mg/ml, mAb 6D1 20 μg/ml",does not inhibit
same,inhibition at 100 µM,[2],53 ± 4%
same,binding of β3 LIBS-specific mAb AP5 compared with untreated platelets,αIIbβ3,do not differ significantly
same,binding of β3 LIBS-specific mAb LIBS-1 compared with untreated platelets,αIIbβ3,do not differ significantly
same,"mAb Binding (% of tirofiban), AP5 (β3)",αIIbβ3; resting washed platelets,26 ± 5.9 % of tirofiban
same,"mAb Binding (% of tirofiban), LIBS-1 (β3)",αIIbβ3; resting washed platelets,5.7 ± 6.3 % of tirofiban
same,"mAb Binding (% of tirofiban), PMI-1 (αIIb)",αIIbβ3; resting washed platelets,44 ± 8.7 % of tirofiban
same,"mAb Binding (% of tirofiban), PMI-1 (αIIb)","αIIbβ3; resting washed platelets, listed as 2-ethyl-7-(piperazin-1-yl)-5H-[1,3,4]thiadiazolo-[3,2-a]pyrimidin-5-one",44 % of tirofiban
same,IC50,platelets [3],29 ± 2 µM
same,IC50,[4],21 ± 0.3 µM
same,"fibrinogen binding after transient exposure of αIIbβ3 (priming), compared to untreated αIIbβ3",purified αIIbβ3 [5],does not increase
same,"inhibition of platelet deposition under shear, area occupied by platelets vs DMSO",[6],87±10%
same,effect of activating mAb AP5 on fibrinogen binding to purified αIIbβ3 in the presence of the substance,purified αIIbβ3 [7],does not increase
same,fibrinogen binding to purified αIIbβ3 in the presence of the substance,purified αIIbβ3 [7]; microtiter plates,blocked
same,IC50,"purified αIIbβ3 [7]; microtiter plates, n=3",1.6 ± 0.4 µM
same,CS1 cell adhesion to immobilized vitronectin,[8],adhere
same,reduction of the initial slope of aggregation,[9],84%
N=C(N)NCCCC[C@@H]1NC(=O)CCSSC[C@@H](C(N)=O)NC(=O)[C@@H]2CCCN2C(=O)[C@H](Cc2c[nH]c3ccccc23)NC(=O)[C@H](CC(=O)O)NC(=O)CNC1=O [eptifibatide] ([Mpa][hArg]GDWPC-NH2; disulfide 1-7),"fibrinogen binding after transient exposure of αIIbβ3 (priming), compared to untreated αIIbβ3",purified αIIbβ3 [5],150±31%
"CCCCS(=O)(=O)N[C@@H](Cc1ccc(OCCCCC2CCNCC2)cc1)C(=O)O [tirofiban, reference compound]","inhibition of platelet deposition under shear, area occupied by platelets vs DMSO",[6],99±1%
same,effect of activating mAb AP5 on fibrinogen binding to purified αIIbβ3 in the presence of the substance,purified αIIbβ3 [7],does not increase
same,fibrinogen binding to purified αIIbβ3 in the presence of the substance,purified αIIbβ3 [7]; microtiter plates,blocked
RGDS,"fibrinogen binding after transient exposure of αIIbβ3 (priming), compared to untreated αIIbβ3",purified αIIbβ3 [5],130±7%
